{
  "source": "paper PMC6231190",
  "about": "(ACS Medicinal Chemistry Letters, 2018)",
  "key": {"[1]": {"molecular_target": "WT p97 (Homo sapiens, UniProt P55072)", "sequence (P55072 whole entry)": "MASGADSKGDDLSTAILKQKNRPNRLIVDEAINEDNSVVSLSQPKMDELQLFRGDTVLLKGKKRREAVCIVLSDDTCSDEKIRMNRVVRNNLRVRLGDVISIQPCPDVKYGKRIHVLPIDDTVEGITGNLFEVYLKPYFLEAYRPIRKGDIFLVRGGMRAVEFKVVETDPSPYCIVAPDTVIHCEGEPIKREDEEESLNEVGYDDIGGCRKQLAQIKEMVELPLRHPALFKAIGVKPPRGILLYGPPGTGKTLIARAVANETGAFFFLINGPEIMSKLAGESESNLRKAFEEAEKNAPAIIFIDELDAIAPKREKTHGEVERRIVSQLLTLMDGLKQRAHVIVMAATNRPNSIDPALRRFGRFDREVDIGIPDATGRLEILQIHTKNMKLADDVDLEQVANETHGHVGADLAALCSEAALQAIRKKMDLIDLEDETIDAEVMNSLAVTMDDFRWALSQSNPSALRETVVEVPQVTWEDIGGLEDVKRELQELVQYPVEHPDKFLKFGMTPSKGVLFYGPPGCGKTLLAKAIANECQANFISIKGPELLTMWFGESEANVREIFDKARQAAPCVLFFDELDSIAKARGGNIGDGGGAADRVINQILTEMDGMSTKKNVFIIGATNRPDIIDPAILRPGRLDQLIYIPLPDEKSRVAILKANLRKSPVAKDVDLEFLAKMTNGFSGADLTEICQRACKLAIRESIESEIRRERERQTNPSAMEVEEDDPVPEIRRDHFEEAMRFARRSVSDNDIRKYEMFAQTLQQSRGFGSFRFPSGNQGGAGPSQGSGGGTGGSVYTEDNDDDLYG", "conditions": "for fold less potent than 17: p97 IC50 ratio vs 17; for p97 inhibition (in words): biochemical ATPase assay"}, "[2]": {"experiment": "Aqueous solubility", "assay_type": "physicochemical", "conditions": "potassium phosphate buffer, pH 7.4, solubility (μM)"}, "[3]": {"experiment": "Metabolic stability in mouse liver microsomes", "assay_type": "in vitro ADME", "conditions": "pH 7.4, MLM (t1/2, min)"}, "[4]": {"tested_on": "NCI-60 cell line panel", "experiment": "cells", "conditions": "Homo sapiens, read-out: pGI50, prostate cancer cell lines (converted)"}, "[5]": {"tested_on": "HeLa cell line with the ubiquitin fusion degradation reporter UbG76V-GFP", "experiment": "UbG76V-GFP accumulation assay"}, "[6]": {"tested_on": "NCI-60 cell line panel", "conditions": "range over lines; for pGI50, CNS tumor cell lines: NCI-60 CNS tumor subpanel; for pGI50, NSCL cancer cell lines: NCI-60 NSCL cancer subpanel; for pGI50, leukemia cell lines: NCI-60 leukemia subpanel; for pGI50, melanoma cell lines: NCI-60 melanoma subpanel; for pGI50, ovarian cancer cell lines: NCI-60 ovarian cancer subpanel; for pGI50, renal cancer cell lines: NCI-60 renal cancer subpanel"}, "[7]": {"experiment": "Metabolic stability in human liver microsomes", "assay_type": "in vitro ADME", "conditions": "pH 7.4, HLM (t1/2, min)"}, "[8]": {"conditions": "Homo sapiens, HeLa, 6 h, read-out: Ub^G76 V-GFP EC50 (μM), 6 h"}},
  "note": "Where two headings read alike, the source gives them in different places.",
  "data": [
    {"smiles": "c1cc(-c2cc3ccccc3[nH]2)cc(N2CCC(NCCN3CCNCC3)CC2)c1", "note": "[Compound 8]", "values": [
      {"measurement": "improvement in potency compared to compound 1", "setting": "[1]; p97 IC50 ratio vs 1", "result": "~3", "unit": "fold"}
    ]},
    {"smiles": "CC(C)N1CCN(CCCNC2CCN(c3cccc(-c4cc5ccccc5[nH]4)c3)CC2)CC1", "note": "[Compound 13]", "values": [
      {"measurement": "fold less potent than 2-carbon homologue 11", "setting": "[1]; p97 IC50 ratio vs 11", "result": "~2", "unit": "fold"}
    ]},
    {"smiles": "CN(C)CCNC1CCN(c2cccc(-c3cc4cc(F)ccc4[nH]3)c2)CC1", "note": "[Compound 15]", "values": [
      {"measurement": "fold less potent than 14", "setting": "[1]; p97 IC50 ratio vs 14", "result": "> 10", "unit": "fold"}
    ]},
    {"smiles": "CC(C)N1CCC(NC2CCN(c3cccc(-c4cc5cc(F)ccc5[nH]4)c3)CC2)CC1", "note": "[Compound 17]", "values": [
      {"measurement": "solubility", "setting": "[2]", "result": "> 300", "unit": "µM"},
      {"measurement": "half-life at 10 µM", "setting": "[3]", "result": "> 4.5", "unit": "h"},
      {"measurement": "GI50", "setting": "[4]", "result": 2000, "unit": "nM"},
      {"measurement": "EC50", "setting": "[5]; [8]", "result": "> 40", "unit": "µM"},
      {"measurement": "pGI50, CNS tumor cell lines", "setting": "[6]", "result": "−5.7 to −5.8"},
      {"measurement": "pGI50, NSCL cancer cell lines", "setting": "[6]", "result": "−5.7 to −6.0"},
      {"measurement": "pGI50, colon cancer cell lines", "setting": "[6]; NCI-60 colon cancer subpanel", "result": "5.8 to −6.4"},
      {"measurement": "pGI50, leukemia cell lines", "setting": "[6]", "result": "−5.7 to −6.7"},
      {"measurement": "pGI50, melanoma cell lines", "setting": "[6]", "result": "−5.7 to −5.9"},
      {"measurement": "pGI50, ovarian cancer cell lines", "setting": "[6]", "result": "−5.7 to −5.8"},
      {"measurement": "pGI50, renal cancer cell lines", "setting": "[6]", "result": "−5.7 to −5.8"}
    ]},
    {"smiles": "CC(C)N1CCC(N[C@H]2CC[C@H](c3cccc(-c4cc5cc(F)ccc5[nH]4)c3)CC2)CC1", "note": "[Compound 18]", "values": [
      {"measurement": "fold less potent than 17", "setting": "[1]", "result": "3–4 fold"}
    ]},
    {"smiles": "CC(C)N1CCC(N[C@H]2CC[C@@H](c3cccc(-c4cc5cc(F)ccc5[nH]4)c3)CC2)CC1", "note": "[Compound 19]", "values": [
      {"measurement": "fold less potent than 17", "setting": "[1]", "result": "> 100", "unit": "fold"},
      {"measurement": "fold less potent compared to the trans-isomer", "setting": "[1]; p97 IC50 ratio vs 18", "result": "> 20", "unit": "fold"}
    ]},
    {"smiles": "CC(C)N1CCC2(CCN(c3cccc(-c4cc5cc(F)ccc5[nH]4)c3)CC2)CC1", "note": "[Compound 20]", "values": [
      {"measurement": "p97 inhibition (in words)", "setting": "[1]", "result": "micromolar range"}
    ]},
    {"smiles": "CC(C)N1CCN(C2CCN(c3cccc(-c4cc5cc(F)ccc5[nH]4)c3)CC2)CC1", "note": "[Compound 21]", "values": [
      {"measurement": "p97 inhibition (in words)", "setting": "[1]", "result": "micromolar range"}
    ]},
    {"smiles": "CC(C)N1CC2CN(c3cccc(-c4cc5cc(F)ccc5[nH]4)c3)CC2C1", "note": "(centres unmarked) [Compound 22]", "values": [
      {"measurement": "p97 inhibition (in words)", "setting": "[1]", "result": "micromolar range"}
    ]},
    {"smiles": "CN1CCN(C2(CNC3CCN(c4cccc(-c5cc6cc(F)ccc6[nH]5)c4)CC3)CCC2)CC1", "note": "[Compound 23]", "values": [
      {"measurement": "solubility", "setting": "[2]", "result": "> 300", "unit": "µM"},
      {"measurement": "half-life at 10 µM", "setting": "[7]", "result": "> 4.5", "unit": "h"},
      {"measurement": "half-life at 10 µM", "setting": "[3]", "result": "> 4.5", "unit": "h"},
      {"measurement": "EC50", "setting": "[5]; [8]", "result": "> 40", "unit": "µM"},
      {"measurement": "pGI50, CNS tumor cell lines", "setting": "[6]", "result": "−5.7 to −5.8"},
      {"measurement": "pGI50, NSCL cancer cell lines", "setting": "[6]", "result": "−5.7 to −5.8"},
      {"measurement": "pGI50, leukemia cell lines", "setting": "[6]", "result": "−5.7 to −6.7"},
      {"measurement": "pGI50, melanoma cell lines", "setting": "[6]", "result": "−5.7 to −6.5"},
      {"measurement": "pGI50, ovarian cancer cell lines", "setting": "[6]", "result": "−5.7 to −5.8"},
      {"measurement": "pGI50, renal cancer cell lines", "setting": "[6]", "result": "−5.7 to −5.8"},
      {"measurement": "fold more potent than the N-iPr analog (24)", "setting": "[1]; p97 IC50 ratio vs 24", "result": 5, "unit": "fold"}
    ]},
    {"smiles": "Cc1cc(OCc2nnc(SC3CCCC3)n2-c2cccnc2)ccc1-c1ccc(S(C)(=O)=O)cc1", "note": "[NMS-873, reference compound]", "values": [
      {"measurement": "EC50", "setting": "[5]; read-out: Ub^G76 V-GFP EC50 (μM), 1 h", "result": 1.4, "unit": "µM"}
    ]}
  ]
}
